Measurements published in patent publication US12559474B2, “Triazine derivatives having virus replication inhibitory activity and pharmaceutical composition comprising the same” (priority 2021, dated 2026).
Where “and” joins values, the source holds several entries; their conditions need not be identical. Identical values can stand only once. Like-named read-outs stand apart in the source and are kept apart here.

Biological target: SARS-CoV-2 3CL protease (Severe acute respiratory syndrome coronavirus 2, UniProt P0DTD1)
Assay: biochemical

Structure (SMILES)	IC50 (IC50)	IC50 (50% SARS-CoV-2 3CL protease inhibitory concentration, RapidFire MS, read-out: IC50)
CN(C)CCn1cc2cc(Nc3nc(=O)n(Cc4ccc[nH]c4=O)c(=O)n3Cc3cc(F)c(F)c(F)c3)c(Cl)cc2n1 [Compound I-0427]	< 100 nM	
CN1Cc2cc(Nc3nc(=O)n(Cc4ccc[nH]c4=O)c(=O)n3Cc3cc(F)c(F)c(F)c3)ccc2C1=O [Compound I-0438]	740 nM and 100 to 1000 nM	
Cc1nc2cc(Cl)c(Nc3nc(=O)n(Cc4ccc[nH]c4=O)c(=O)n3Cc3cc(F)c(F)c(F)c3)cc2n1C [Compound I-0439]	< 100 nM	
Cn1nnc2cc(Cl)c(Nc3nc(=O)n(Cc4ccc[nH]c4=O)c(=O)n3Cc3cc(F)c(F)c(F)c3)cc21 [Compound I-0440]	< 100 nM	
Cc1cn2cc(Nc3nc(=O)n(Cc4ccc[nH]c4=O)c(=O)n3Cc3cc(F)c(F)c(F)c3)c(Cl)cc2n1 [Compound I-0441]	< 100 nM	
Cc1nc2cc(Cl)c(Nc3nc(=O)n(Cc4ccc[nH]c4=O)c(=O)n3Cc3cc(F)c(F)c(F)c3)cn2n1 [Compound I-0442]	< 100 nM	
COCCn1c(C)nc2cc(Cl)c(Nc3nc(=O)n(Cc4ccc[nH]c4=O)c(=O)n3Cc3cc(F)c(F)c(F)c3)cc21 [Compound I-0443]	< 100 nM	
Cc1nc2cc(Cl)c(Nc3nc(=O)n(Cc4ccc[nH]c4=O)c(=O)n3Cc3cc(F)c(F)c(F)c3)cc2n1CC(C)(C)O [Compound I-0445]	< 100 nM	
Cc1nc2cc(Cl)c(Nc3nc(=O)n(Cc4ccc[nH]c4=O)c(=O)n3Cc3cc(F)c(F)c(F)c3)cc2n1CCCS(C)(=O)=O [Compound I-0446]	< 100 nM	
CC(=O)N1CC(n2cc3cc(Nc4nc(=O)n(Cc5ccc[nH]c5=O)c(=O)n4Cc4cc(F)c(F)c(F)c4)c(Cl)cc3n2)C1 [Compound I-0448]	< 100 nM	
CC(=O)NCCn1cc2cc(Nc3nc(=O)n(Cc4ccc[nH]c4=O)c(=O)n3Cc3cc(F)c(F)c(F)c3)c(Cl)cc2n1 [Compound I-0449]	< 100 nM	
CC(=O)NCCn1cc2cc(Nc3nc(=O)n(Cc4cc(Cl)c[nH]c4=O)c(=O)n3Cc3cc(F)c(F)c(F)c3)c(Cl)cc2n1 [Compound I-0453]	< 100 nM	
CC(=O)Nc1nc2ccc(Nc3nc(=O)n(Cc4ccc[nH]c4=O)c(=O)n3Cc3cc(F)c(F)c(F)c3)cc2s1 [Compound I-0458]	< 100 nM	
CNC(=O)COc1ccc(Nc2nc(=O)n(Cc3ccc[nH]c3=O)c(=O)n2Cc2cc(F)c(F)c(F)c2)c(Cl)c1 [Compound I-0463]	< 100 nM	
O=C(O)COc1ccc(Nc2nc(=O)n(Cc3ccc[nH]c3=O)c(=O)n2Cc2cc(F)c(F)c(F)c2)c(Cl)c1 [Compound I-0464]	< 100 nM	
O=c1[nH]cccc1Cn1c(=O)nc(Nc2cc3cn(CC4(CO)COC4)nc3cc2Cl)n(Cc2cc(F)c(F)c(F)c2)c1=O [Compound I-0469]	< 100 nM	
CNC(=O)c1c[nH]c(=O)c(Cn2c(=O)nc(Nc3cc4cn(C)nc4cc3Cl)n(Cc3cc(F)c(F)c(F)c3)c2=O)c1 [Compound I-0477]	< 100 nM	
CNC(=O)c1c[nH]c(=O)c(Cn2c(=O)nc(Nc3cc4c(cc3Cl)OCC4)n(Cc3cc(F)c(F)c(F)c3)c2=O)c1 [Compound I-0478]	< 100 nM	
CNC(=O)Cn1c(=O)nc(Nc2cc3sc(C)nc3cc2C)n(Cc2cc(F)c(F)c(F)c2)c1=O [Compound I-0479]	1000 to 10000 nM	
Cn1cnc(Cn2cc3cc(Nc4nc(=O)n(Cc5ncn(C)n5)c(=O)n4Cc4cc(F)c(F)c(Cl)c4)c(Cl)cc3n2)n1 [II-0004]	< 100 nM	
Cn1cc2cc(Nc3nc(=O)n(Cc4cc5ccsc5[nH]c4=O)c(=O)n3Cc3ccc(F)c(C#N)c3)ccc2n1 [II-0009]	< 100 nM	
CC(=O)Nc1nc2cc(F)c(Nc3nc(=O)n(Cc4ncn(C)n4)c(=O)n3Cc3cc(F)c(F)c(Cl)c3)cc2s1 [II-0012]	< 100 nM	
Cn1cnc(Cn2c(=O)nc(Nc3cc4c(=O)n(C)cnc4cc3Cl)n(Cc3cc(F)c(F)cc3F)c2=O)n1 [II-0013]	< 100 nM	
Cc1nc2cc(Cl)c(Nc3nc(=O)n(Cc4ncn(C)n4)c(=O)n3Cc3cc(F)c(F)cc3F)cc2n1C [II-0019]	< 100 nM	

Structure (SMILES)	IC50 (IC50)	IC50 (50% SARS-CoV-2 3CL protease inhibitory concentration, RapidFire MS, read-out: IC50)
Cc1cncc(-n2c(=O)nc(Nc3cc4cn(C)nc4cc3Cl)n(Cc3nc(Cl)c(Cl)n3C)c2=O)c1 [II-0021]	3600 nM	
Cn1cnc(Cn2c(=O)nc(Nc3cc4cn(CCS(C)(=O)=O)nc4cc3Cl)n(Cc3cc(Cl)c(F)cc3F)c2=O)n1 [II-0033]	< 100 nM	
CN(C)C(=O)c1ccc(Cn2c(=O)nc(Nc3ccc4c(c3)CCCO4)n(Cc3cc(F)c(F)c(F)c3)c2=O)c(=O)[nH]1 [II-0042]	< 100 nM	
COC(=O)NC12CC(Nc3nc(=O)n(Cc4ccc[nH]c4=O)c(=O)n3Cc3cc(F)c(F)c(F)c3)(C1)C2 [II-0062]	< 100 nM	
Cc1cncc(-n2c(=O)nc(Nc3cc4sc(NCC5CC5)nc4cc3Cl)n(Cc3ccc(F)c(C#N)c3)c2=O)c1 [II-0081]	< 100 nM	
CC(=O)Nc1nc2cc(Cl)c(Nc3nc(=O)n(Cc4ncn(C)n4)c(=O)n3Cc3ccc(F)c(C#N)c3)cc2s1 [II-0083]	< 100 nM	
Cc1cncc(-n2c(=O)nc(Nc3cc4cn(C)nc4cc3Cl)n(C[C@@H]3CCCN3)c2=O)c1 [II-0085]		9200 nM
Cc1cncc(-n2c(=O)nc(Nc3cc4cn(C)nc4cc3Cl)n(C[C@@H]3CCCN3C(=O)CNC(=O)C(F)(F)F)c2=O)c1 [II-0086]	3400 nM	
Cn1cc2cc(Nc3nc(=O)n(Cc4nc[nH]n4)c(=O)n3Cc3cc(F)c(F)cc3F)c(Cl)cc2n1 [II-0091]	< 100 nM	
COc1ccnc(NC23CC(Nc4nc(=O)n(Cc5ncn(C)n5)c(=O)n4Cc4cc(F)c(F)c(F)c4)(C2)C3)n1 [II-0113]	< 100 nM	
COc1ncc(Nc2nc(=O)n(-c3cncc(C)c3)c(=O)n2Cc2ccc(F)c(C#N)c2)c(C)n1 [II-0124]	3300 nM	
Cn1cnc(Cn2c(=O)nc(Nc3cc4cn(CC(=O)N5CCCCC5)nc4cc3Cl)n(Cc3cc(Cl)c(F)cc3F)c2=O)n1 [II-0134]	< 100 nM	
COCCN(C)C(=O)Cn1cc2cc(Nc3nc(=O)n(Cc4ncn(C)n4)c(=O)n3Cc3cc(Cl)c(F)cc3F)c(Cl)cc2n1 [II-0135]	< 100 nM	
Cn1cnc(Cn2c(=O)nc(Nc3cc4cn(CC(=O)N5CC(F)(F)C5)nc4cc3Cl)n(Cc3cc(Cl)c(F)cc3F)c2=O)n1 [II-0136]	< 100 nM	
CNC(=O)Cn1cc2cc(Nc3nc(=O)n(Cc4ncn(C)n4)c(=O)n3Cc3cc(Cl)c(F)cc3F)c(Cl)cc2n1 [II-0137]	< 100 nM	
Cn1cnc(Cn2c(=O)nc(Nc3cc4cn(CC(=O)N5CCCC5)nc4cc3Cl)n(Cc3cc(Cl)c(F)cc3F)c2=O)n1 [II-0138]	< 100 nM	
Cn1cnc(Cn2c(=O)nc(Nc3cc4cn(CC(=O)N5CCOCC5)nc4cc3Cl)n(Cc3cc(F)c(F)c(Cl)c3)c2=O)n1 [II-0139]	< 100 nM	
COCCN(C)C(=O)Cn1cc2cc(Nc3nc(=O)n(Cc4ncn(C)n4)c(=O)n3Cc3cc(F)c(F)c(Cl)c3)c(Cl)cc2n1 [II-0141]	< 100 nM	
Cn1cnc(Cn2c(=O)nc(Nc3cc4cn(CC(=O)N5CCCCC5)nc4cc3Cl)n(Cc3cc(F)c(F)c(Cl)c3)c2=O)n1 [II-0142]	< 100 nM	
Cn1cnc(Cn2c(=O)nc(Nc3cc4cn(CC(=O)N5CC(F)(F)C5)nc4cc3Cl)n(Cc3cc(F)c(F)c(Cl)c3)c2=O)n1 [II-0143]	< 100 nM	
CNC(=O)Cn1cc2cc(Nc3nc(=O)n(Cc4ncn(C)n4)c(=O)n3Cc3cc(F)c(F)c(Cl)c3)c(Cl)cc2n1 [II-0145]	< 100 nM	
CN(C(=O)Cn1cc2cc(Nc3nc(=O)n(Cc4ncn(C)n4)c(=O)n3Cc3cc(Cl)c(F)cc3F)c(Cl)cc2n1)C1CC1 [II-0146]	< 100 nM	
Cn1cnc(Cn2c(=O)nc(Nc3cc4cn(CC(=O)N5CCCC5)nc4cc3Cl)n(Cc3cc(F)c(F)c(Cl)c3)c2=O)n1 [II-0147]	< 100 nM	
